From ChEMBL document CHEMBL1143836, “Predictors of mortality in patients with bloodstream infections caused by extended-spectrum-beta-lactamase-producing Enterobacteriaceae: importance of inadequate initial antimicrobial treatment” (2007)
Values after ≈ are worked out from the molar mass of the structure shown.

Assays:
[1] = system: Klebsiella pneumoniae; assay: Antimicrobial activity against extended-spectrum-beta-lactamase producing Klebsiella pneumoniae isolates; assay type: functional
[2] = system: Klebsiella pneumoniae; assay: Antimicrobial activity against extended-spectrum-beta-lactamase producing Klebsiella pneumoniae assessed as percent susceptible isolates
[3] = system: Proteus mirabilis; assay: Antimicrobial activity against extended-spectrum-beta-lactamase producing Proteus mirabilis isolates; assay type: functional
[4] = system: Escherichia coli; assay: Antimicrobial activity against extended-spectrum-beta-lactamase producing Escherichia coli isolates; assay type: functional
[5] = system: Proteus mirabilis; assay: Antimicrobial activity against extended-spectrum-beta-lactamase producing Proteus mirabilis assessed as percent resistant isolates; assay type: functional
[6] = system: Escherichia coli; assay: Antimicrobial activity against extended-spectrum-beta-lactamase producing Escherichia coli assessed as percent resistant isolates; assay type: functional

Row | SMILES | MIC50 [1] | MIC90 [1] | Activity [2] | MIC50 [3] | MIC90 [3] | MIC50 [4] | MIC90 [4] | Activity [5] | Activity [6]
1 | C[C@H]1[C@H](NC(=O)/C(=N\OC(C)(C)C(=O)O)c2csc(N)n2)C(=O)N1S(=O)(=O)O (stereo in doubt) [AZTREONAM] | 256 µg/mL (≈ 588 µM) | 256 µg/mL (≈ 588 µM) | 0% | 0.25 µg/mL (≈ 0.574 µM) | 1 µg/mL (≈ 2.3 µM) | 256 µg/mL (≈ 588 µM) | 256 µg/mL (≈ 588 µM) | 0% | 
2 | NCC[C@H](O)C(=O)N[C@@H]1C[C@H](N)[C@@H](O[C@H]2O[C@H](CN)[C@@H](O)[C@H](O)[C@H]2O)[C@H](O)[C@H]1O[C@H]1O[C@H](CO)[C@@H](O)[C@H](N)[C@H]1O [AMIKACIN] | 2 µg/mL (≈ 3.42 µM) | 16 µg/mL (≈ 27.3 µM) | 91.4% | 2 µg/mL (≈ 3.42 µM) | 4 µg/mL (≈ 6.83 µM) | 2 µg/mL (≈ 3.42 µM) | 8 µg/mL (≈ 13.7 µM) | 100% | 98.1%
3 | CO/N=C(\C(=O)N[C@@H]1C(=O)N2C(C(=O)[O-])=C(C[N+]3(C)CCCC3)CS[C@H]12)c1csc(N)n1 [CEFEPIME] | 1 µg/mL (≈ 2.08 µM) | 256 µg/mL (≈ 533 µM) | 0% | 2 µg/mL (≈ 4.16 µM) | 32 µg/mL (≈ 66.6 µM) | 16 µg/mL (≈ 33.3 µM) | 256 µg/mL (≈ 533 µM) | 0% | 0%
4 | CO/N=C(\C(=O)N[C@@H]1C(=O)N2C(C(=O)O)=C(COC(C)=O)CS[C@H]12)c1csc(N)n1 [CEFOTAXIME] | 8 µg/mL (≈ 17.6 µM) | 256 µg/mL (≈ 562 µM) | 0% | 16 µg/mL (≈ 35.1 µM) | 256 µg/mL (≈ 562 µM) | 256 µg/mL (≈ 562 µM) | 256 µg/mL (≈ 562 µM) | 0% | 0%
5 | CO[C@@]1(NC(=O)Cc2cccs2)C(=O)N2C(C(=O)O)=C(COC(N)=O)CS[C@@H]21 [CEFOXITIN] | 2 µg/mL (≈ 4.68 µM) | ≥ 64 µg/mL | 74.1% | 2 µg/mL (≈ 4.68 µM) | 8 µg/mL (≈ 18.7 µM) | 2 µg/mL (≈ 4.68 µM) | ≥ 64 µg/mL | 0% | 71.1%
6 | CC(C)(O/N=C(\C(=O)N[C@@H]1C(=O)N2C(C(=O)[O-])=C(C[n+]3ccccc3)CS[C@H]12)c1csc(N)n1)C(=O)O [CEFTAZIDIME] | 256 µg/mL (≈ 468 µM) | 256 µg/mL (≈ 468 µM) | 0% | 4 µg/mL (≈ 7.32 µM) | 16 µg/mL (≈ 29.3 µM) | 256 µg/mL (≈ 468 µM) | 256 µg/mL (≈ 468 µM) | 0% | 0%
7 | O=C(O)c1cn(C2CC2)c2cc(N3CCNCC3)c(F)cc2c1=O [CIPROFLOXACIN] | 2 µg/mL (≈ 6.04 µM) | ≥ 16 µg/mL | 46.5% | ≥ 16 µg/mL | ≥ 16 µg/mL | ≥ 16 µg/mL | ≥ 16 µg/mL | 12.5% | 8.6%
8 | C[C@@H](O)[C@H]1C(=O)N2C(C(=O)O)=C(SCCNC=N)C[C@H]12 [IMIPENEM ANHYDROUS] | 0.25 µg/mL (≈ 0.835 µM) | 0.25 µg/mL (≈ 0.835 µM) | 100% | 1 µg/mL (≈ 3.34 µM) | 4 µg/mL (≈ 13.4 µM) |  |  | 100% | 100%
9 | C[C@H]1COc2c(N3CCN(C)CC3)c(F)cc3c(=O)c(C(=O)O)cn1c23.C[C@H]1COc2c(N3CCN(C)CC3)c(F)cc3c(=O)c(C(=O)O)cn1c23.O [LEVOFLOXACIN] | 2 µg/mL | ≥ 32 µg/mL | 48.2% | ≥ 32 µg/mL | ≥ 32 µg/mL | ≥ 32 µg/mL | ≥ 32 µg/mL | 12.5% | 8.6%
10 | C[C@@H](O)[C@H]1C(=O)N2C(C(=O)O)=C(S[C@@H]3CN[C@H](C(=O)N(C)C)C3)[C@H](C)[C@H]12 [MEROPENEM] | 0.03 µg/mL (≈ 0.0782 µM) | 0.25 µg/mL (≈ 0.652 µM) | 100% | 0.03 µg/mL (≈ 0.0782 µM) | 0.25 µg/mL (≈ 0.652 µM) | 0.03 µg/mL (≈ 0.0782 µM) | 0.25 µg/mL (≈ 0.652 µM) | 100% | 100%
